# According to US8548786B2, “Neuronal avalanche assay” (priority 2005, dated 2013):
# Experiments:
# [1] = tested on: acute slices of rat medial prefrontal cortex (mPFC); assay: Neuronal avalanche (NAS) assay, microelectrode array LFP recording in acute mPFC slices;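 note: 60-electrode array recordings, low-pass filtered at 200 Hz and sampled at 1 kHz, nLFPs detected below −3 SD of electrode noise, avalanches as runs of active bins between silent bins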
# Procedure: Continuous extracellular signals v(t) can be recorded between 0.1 Hz and 3000 Hz, low-pass filtered at 200 Hz (Butterfly-filter, Multichannel Systems), digitised at a rate of 1 kHz (Δt=1 ms) and stored. For each electrode k (k=[1, nelec], nelec=60), the electrode noise of v(t) can be estimated by calculating the mean and standard deviation (SD) of v(t) from the total duration of the recording, Ttot, which can range, for example, between 40-60 min. […] Negative LFP peaks (nLFPs) at electrode k can be detected by negative threshold crossing at −3 SD of electrode noise and can be characterized by the time and absolute amplitude of the negative LFP peak, A^k(ti), before v(t) returned to threshold. More precisely, at a given temporal resolution Δt, nLFPs at electrode k can be represented by a vector of length nmax, where nmax is an integer value for which Ttot=nmax·Δt. This vector can contain zeros, except for positions ti=i·Δt, iε[1, . . . , nmax,] with values A^k(ti) in μV.
# A neuronal avalanche is a sequence of consecutive time bins of width Δt with at least one nLFP, which is preceded and terminated by at least one time bin with no activity (FIG. 3A). The absence of activity for a period of Δt thus indicates the end of an avalanche. If the decision of whether an avalanche has ended is made too early (Δt too short), avalanches will be terminated prematurely; if the Δt chosen is too long, avalanches will be falsely concatenated. If avalanches did simply propagate like a wave, an approximation for Δt (Δtavg) could be obtained by averaging the time between one nLFP at one electrode and the next nLFP at neighbouring electrodes only. Because nLFPs in avalanches occur in irregular patterns across electrodes on the array, a pair wise approximation can be used in order to assess the average time that is required for nLFPs to propagate between electrodes.
# In order to calculate Δtavg, the distribution of time intervals T for successive nLFPs on the array can be obtained. Starting with the first nLFP, e.g. A^k(ti) on electrode k at time ti, the next occurrence of an nLFP on the array can be searched for, e.g. A^l(tj) on electrode l at time tj, and calculated the time interval Tm-Δt^k,l, where m=(tj−ti)/Δt. This process can be repeated for all occurrences of nLFPs on electrode k and for all electrodes. The resulting values can be combined into one density distribution P(TmΔt), which captures how often successive nLFPs occurred with a particular delay m·Δt on the array irrespective of their spatial location. Consequently, the average value of T provides an approximation for Δtavg, the average time to wait before making a decision whether an nLFP propagated on the array. However, this interval distribution is highly skewed, particularly when one compares the last nLFP with the first nLFP in successive avalanches that are separated by long times. In order to exclude time intervals from successive nLFPs that are barely correlated, a cut-off time τmax can be calculated for which the average crosscorrelation function (ccf) for pair wise electrode comparisons Rccf(τ) had decayed to negligible values. The ccf between electrodes k, l (Rccf^k,l(τ)) can be calculated as
# Because the exemplary maximal sampling rate was 1 kHz, the actual Δt^avg to calculate avalanches can be taken as the nearest multiple of Δt=1 ms. In short, after Δtavg was calculated for a particular network and experimental condition, the extracellular signals v(t) can be re-sampled at the new temporal resolution of Δtavg. Time and amplitude of nLFP peaks can be extracted as A^k(ti), where ti=i·Δtavg, iε[1, n′max] and Ttot=n′max·Δtavg. Avalanches can be determined on the downsampled data set at bin width Δtavg.
# Avalanche sizes can be calculated in two different ways (see also FIG. 3A).
# [2] = tested on: acute somatosensory cortex slices; assay: Neuronal avalanche induction in acute somatosensory cortex slices; format: cell-based, rat; details: 3 μM SKF38393 + 3 μM NMDA
smiles,measurement,setting,value
Cl.Oc1cc2c(cc1O)C(c1ccccc1)CNCC2 (racemic) [SKF38393],average nLFP peak amplitude,[1]; 3 μM SKF38393 + 3 μM NMDA,6.62±0.01 mV
same,Δtavg,[1]; 3 μM SKF38393 + 3 μM NMDA,3.3±0.2
same,total activity at slope α ~−1.5 compared to dopamine,"[1]; 3 μM SKF38393 + 3 μM NMDA vs 30 μM dopamine, p=0.007",significantly reduced level of total activity compared to dopamine
same,slope αLFP after rescue by added NMDA,"[1]; 3 μM SKF38393 alone first, then 3 μM NMDA added",−1.55±0.07
same,induction of nLFPs or avalanches,"[1]; 3 μM SKF38393 alone, without NMDA",did not induce nLFPs or avalanches
same,slope α of avalanche size distribution,"[1]; SKF38393 higher or lower than 3 μM (0.3-300 μM range), + 3 μM NMDA",< −1.5
same,avalanche induction and layer localisation,[2],induced neuronal avalanches primarily in superficial layers
